# Results: paper PMC9885860 (Pharmacological research, 2021)
# Where “and” joins values, the source holds several entries; their conditions need not be identical. Equal entries are not always repeated. Entries after “also recorded” stand apart in the source; their conditions may differ. Structures can show the parent of a compound that is named as a salt. Where two headings read alike, the source gives them in different places.
# How the values were obtained:
# [1] = biological target: T1, α2R (Ovis aries, UniProt A0ACI6PY47); experiment: Competitive inhibition of [3H]RX821002 binding in sheep cortex membranes; settings: read-out: KDB1 for α2R; vs [3H]RX821002, sheep cortex membranes
# T1 sequence (A0ACI6PY47 1-467): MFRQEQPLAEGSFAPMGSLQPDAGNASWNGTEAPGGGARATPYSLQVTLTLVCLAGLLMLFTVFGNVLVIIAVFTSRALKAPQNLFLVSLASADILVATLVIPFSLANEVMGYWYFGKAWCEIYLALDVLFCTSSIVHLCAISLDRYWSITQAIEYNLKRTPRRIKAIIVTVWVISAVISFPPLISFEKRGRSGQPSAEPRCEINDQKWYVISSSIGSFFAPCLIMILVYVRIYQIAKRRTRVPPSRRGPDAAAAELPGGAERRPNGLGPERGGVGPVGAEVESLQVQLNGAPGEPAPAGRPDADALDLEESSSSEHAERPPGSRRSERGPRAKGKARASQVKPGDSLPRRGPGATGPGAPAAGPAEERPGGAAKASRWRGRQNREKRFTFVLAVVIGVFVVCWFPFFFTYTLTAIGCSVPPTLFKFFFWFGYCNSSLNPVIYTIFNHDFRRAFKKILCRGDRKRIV
# [2] = biological target: T2, D4.4R (Homo sapiens, UniProt P21917); assay type: binding
# T2 sequence (P21917 1-419): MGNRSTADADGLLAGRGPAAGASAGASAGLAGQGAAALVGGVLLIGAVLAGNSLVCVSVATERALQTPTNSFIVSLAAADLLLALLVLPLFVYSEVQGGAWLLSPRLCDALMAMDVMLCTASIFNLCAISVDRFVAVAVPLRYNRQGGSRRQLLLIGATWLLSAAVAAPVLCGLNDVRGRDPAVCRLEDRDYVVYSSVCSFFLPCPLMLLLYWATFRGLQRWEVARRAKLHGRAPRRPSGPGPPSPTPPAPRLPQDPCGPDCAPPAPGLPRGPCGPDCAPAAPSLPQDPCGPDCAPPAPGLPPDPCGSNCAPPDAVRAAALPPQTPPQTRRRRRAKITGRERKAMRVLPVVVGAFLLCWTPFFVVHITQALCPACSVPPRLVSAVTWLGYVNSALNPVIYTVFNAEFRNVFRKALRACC
# [3] = biological target: T3, α2AR-D4.4R (Homo sapiens, UniProt P08913+P21917); assay type: binding; settings: 12°C; control or in presence of A-412997 (30 nM)
# T3 sequence (P08913 1-465): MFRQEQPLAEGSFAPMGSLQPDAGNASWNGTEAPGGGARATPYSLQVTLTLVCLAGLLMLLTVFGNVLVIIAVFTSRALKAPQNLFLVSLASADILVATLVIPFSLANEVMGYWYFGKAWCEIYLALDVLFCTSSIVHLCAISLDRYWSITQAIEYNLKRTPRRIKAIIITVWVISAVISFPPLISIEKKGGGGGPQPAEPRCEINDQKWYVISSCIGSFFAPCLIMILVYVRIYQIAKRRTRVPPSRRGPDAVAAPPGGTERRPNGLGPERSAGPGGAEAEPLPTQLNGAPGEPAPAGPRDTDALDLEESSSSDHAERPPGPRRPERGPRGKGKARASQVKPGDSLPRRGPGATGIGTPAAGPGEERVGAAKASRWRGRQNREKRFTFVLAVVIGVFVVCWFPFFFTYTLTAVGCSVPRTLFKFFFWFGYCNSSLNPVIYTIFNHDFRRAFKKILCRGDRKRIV
# T3 sequence (P21917 1-419): T2 sequence (P21917 1-419)
# [4] = biological target: α2AR-D4.7R (Homo sapiens, UniProt P08913+P21917); experiment: CODA-RET Gαi1 activation, α2AR-D4.7R heteromer; assay type: cell-based; settings: for Emax: Gαi1, Table 2
# α2AR-D4.7R (Homo sapiens, UniProt P08913+P21917), sequence (P62873 2-340, one chain of several): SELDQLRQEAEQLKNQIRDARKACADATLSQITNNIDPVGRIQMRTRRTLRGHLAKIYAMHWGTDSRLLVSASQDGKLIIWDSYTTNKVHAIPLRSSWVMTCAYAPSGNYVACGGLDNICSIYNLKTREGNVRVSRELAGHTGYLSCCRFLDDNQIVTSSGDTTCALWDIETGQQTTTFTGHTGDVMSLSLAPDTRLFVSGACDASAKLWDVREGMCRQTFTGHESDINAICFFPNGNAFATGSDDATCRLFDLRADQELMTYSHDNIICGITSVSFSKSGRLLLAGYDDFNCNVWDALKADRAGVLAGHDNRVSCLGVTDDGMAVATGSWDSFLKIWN
# α2AR-D4.7R (Homo sapiens, UniProt P08913+P21917), sequence (P63096 2-354, one chain of several, further chain): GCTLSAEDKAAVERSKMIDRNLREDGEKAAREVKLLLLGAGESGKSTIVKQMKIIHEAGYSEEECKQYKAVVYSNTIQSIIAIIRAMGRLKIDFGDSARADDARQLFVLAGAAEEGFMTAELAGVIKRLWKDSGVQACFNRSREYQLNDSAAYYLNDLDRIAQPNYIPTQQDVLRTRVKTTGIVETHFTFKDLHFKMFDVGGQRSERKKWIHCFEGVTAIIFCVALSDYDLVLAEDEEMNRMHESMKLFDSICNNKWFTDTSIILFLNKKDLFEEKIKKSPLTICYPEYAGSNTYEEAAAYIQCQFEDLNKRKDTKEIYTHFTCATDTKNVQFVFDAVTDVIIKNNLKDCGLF
# α2AR-D4.7R (Homo sapiens, UniProt P08913+P21917), sequence (P59768 2-68, one chain of several, further chain): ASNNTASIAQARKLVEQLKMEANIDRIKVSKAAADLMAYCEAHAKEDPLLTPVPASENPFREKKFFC
# [5] = biological target: T4, D4.4R-D4.4R (Homo sapiens, UniProt P21917); experiment: CODA-RET Gαi1 activation, D4.4R-D4.4R homomer; assay type: cell-based; settings: A-412997 1 μM; shift to the right of DA curve
# T4 sequence (P21917 1-419) 1: T2 sequence (P21917 1-419)
# T4 sequence (P21917 1-419) 2: T2 sequence (P21917 1-419)
# [6] = biological target: T2, D4.4R; experiment: Receptor-G protein BRET, D4.4R fused to RLuc with Gαi1 or Gαo1; assay type: cell-based
# [7] = biological target: T5, D4.7R (Homo sapiens, UniProt P21917); experiment: Receptor-G protein BRET, D4.7R fused to RLuc with Gαi1 or Gαo1; assay type: cell-based
# T5 sequence (P21917 1-264 limits assumed): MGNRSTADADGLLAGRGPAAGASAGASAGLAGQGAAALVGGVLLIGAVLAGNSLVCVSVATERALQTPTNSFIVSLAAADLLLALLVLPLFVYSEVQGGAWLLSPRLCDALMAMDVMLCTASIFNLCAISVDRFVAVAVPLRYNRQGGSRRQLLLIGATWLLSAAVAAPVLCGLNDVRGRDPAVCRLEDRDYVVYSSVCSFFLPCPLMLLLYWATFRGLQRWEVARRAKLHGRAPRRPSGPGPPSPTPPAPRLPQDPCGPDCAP
# T5 sequence (P21917 297-419 limits assumed): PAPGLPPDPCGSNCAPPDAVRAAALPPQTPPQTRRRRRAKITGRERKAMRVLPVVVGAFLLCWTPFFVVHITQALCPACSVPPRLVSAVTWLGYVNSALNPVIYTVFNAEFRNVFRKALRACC
# [8] = biological target: T3, α2AR-D4.4R; experiment: CODA-RET Gαo1 activation, α2AR-D4.4R heteromer; assay type: cell-based; settings: Fig. 4D
# [9] = biological target: T6, α2AR-D4.4R cells (Homo sapiens, UniProt P08913+P21917); experiment: Forskolin-induced cAMP accumulation, α2AR-D4.4R cells; assay type: cell-based; settings: agonists 100 nM, forskolin 0.5 μM
# T6 sequence (P08913 1-465): T3 sequence (P08913 1-465)
# T6 sequence (P21917 1-419): T2 sequence (P21917 1-419)
# [10] = biological target: T6, α2AR-D4.4R cells; experiment: ERK1/2 phosphorylation, α2AR-D4.4R cells; assay type: cell-based; settings: agonists 300 nM, 5 min
# [11] = system: cortical slices from hD4.7R mice; experiment: ERK1/2 phosphorylation in cortical brain slices from knock-in hD4.7R mice; set-up: species or system mouse; settings: agonists 1 μM
# [12] = biological target: T7, D4.7R-D4.7R (Homo sapiens, UniProt P21917); settings: A-412997 1 μM; shift to the right of DA curve
# T7 sequence (P21917 1-419): T2 sequence (P21917 1-419)
# [13] = biological target: T8, α2AR-α2AR (Homo sapiens, UniProt P08913); experiment: CODA-RET Gαi1 activation, α2AR-α2AR homomer; assay type: cell-based; settings: for Emax: Gαi1, Table 2
# T8 sequence (P08913 1-465) 1: T3 sequence (P08913 1-465)
# T8 sequence (P08913 1-465) 2: T3 sequence (P08913 1-465)
# [14] = biological target: T3, α2AR-D4.4R; experiment: CODA-RET Gαi1 activation, α2AR-D4.4R heteromer; assay type: cell-based; settings: for Emax: Gαi1, Table 2
# [15] = system: α2AR-D4.7R; experiment: CODA-RET Gαo1 activation, α2AR-D4.7R heteromer; assay type: cell-based, human; settings: Fig. 4E
# [16] = biological target: T9, α2AR (with D4.4R) (Homo sapiens, UniProt P08913); experiment: BRET α2AR-RLuc and Gαo1-mVenus, cells co-transfected with unfused D4.4R; assay type: cell-based; settings: in the presence of D4.4R
# T9 sequence (P08913 1-465): T3 sequence (P08913 1-465)
# [17] = biological target: T10, α2AR (with D4.7R) (Homo sapiens, UniProt P08913); experiment: BRET α2AR-RLuc and Gαo1-mVenus, cells co-transfected with unfused D4.7R; assay type: cell-based; settings: in the presence of D4.7R
# T10 sequence (P08913 1-465): T3 sequence (P08913 1-465)
# [18] = biological target: T11, human α2AR (Homo sapiens, UniProt P08913); experiment: [3H]RX821002 saturation binding in HEK-293T cells transfected with human α2AR; settings: read-out: KDA1, n=3
# T11 sequence (P08913 1-465): T3 sequence (P08913 1-465)
# [19] = system: α2AR-D4.7R; assay type: binding, human; settings: 12°C; control or in presence of A-412997 (30 nM)
# [20] = biological target: human α2A adrenoceptor fused to Renilla luciferase RLuc8 (α2AR-RLuc) (human) (UniProt P08913); experiment: FRET or BRET
# [21] = cells pretreated with antagonist
compound,measurement,setting,value
"Cc1cccc(NC(=O)CN2CCC(c3ccccn3)CC2)c1.Cl.Cl [A-412997, A-412997 dihydrochloride]",Kd,[1],1400 nM
same,Kd,"[2]; read-out: KDB1, vs [3H]YM-09151-2, HEK-293T co-expressing α2AR and D4.4R, n=3",1.1 ± 0.1 nM
same,koff1 of [3H]RX821002,[3],0.25±0.07 ^* min^−1
same,koff2 of [3H]RX821002,[3],0.036±0.007 ^* min^−1
same,Emax,[4],0 % of NE
same,effect on DA-mediated Gi protein activation,[5],competitive antagonist of DA
same,Gαi1 activation,[6]; Gαi1-mVenus,did not promote
same,Gαo1 activation,[6]; Gαo1-mVenus,did promote significant Gαo1 activation
same,Gαi1 activation,[7]; Gαi1-mVenus,did not promote
same,Gαo1 activation,[7]; Gαo1-mVenus,did promote significant Gαo1 activation
same,Gαo1 activation,[8],promoted Gαo1 activation
same,inhibition of forskolin-induced cAMP accumulation,[9],more effective than dexmedetomidine
same,ERK1/2 phosphorylation,[10],more effective in α2AR-D4.4R cells than in α2AR-D4.7R cells
same,MAPK activation (ERK1/2 phosphorylation),[11],significantly weaker than of dexmedetomidine
same,effect on DA-mediated Gi protein activation,[12],competitive antagonist of DA
"CC1c2ccccc2CN1CC1=NCCN1.O=C(O)/C=C\C(=O)O (stereo not shown) [BRL44408, BRL 44408 maleate]",antagonist effect on NE- and DA-induced Gαi1 activation,[13]; [21],significantly decreased the potency of NE and DA
same,antagonist effect on NE- and DA-induced Gαi1 activation,[14]; [21],significantly decreased the potency of NE and DA
same,antagonist effect on NE- and DA-induced Gαi1 activation,[4]; [21],significantly decreased the potency of NE and DA
"Clc1cccc(Cl)c1N=C1NCCN1 [Clonidine, Clonidine hydrochloride]",Emax,[13],18±2 % of NE
same,Emax,[14],0 % of NE
same,Emax,[14]; listed as clonidine,complete lack of efficacy
"Cc1cccc([C@H](C)c2cnc[nH]2)c1C [Dexmedetomidine, Dexmedetomidine hydrochloride]",Kd,[2],2000 to 6000 nM
same,Emax,[13],26±3 % of NE
same,Gαo1 activation,[15],able to activate Gαo1
same,α2AR-mediated Gαo1 activation,[16],promotes a significant α2AR-mediated Gαo1 activation
same,α2AR-mediated Gαo1 activation,[17],promotes a significant α2AR-mediated Gαo1 activation
"N=C(N)NC(=O)Cc1c(Cl)cccc1Cl [Guanfacine, Guanfacine hydrochloride]",Emax,[13],14±2 % of NE
same,Emax,[14],0 % of NE
same,Emax,[14]; listed as guanfacine,complete lack of efficacy
same,Emax,[4],20±3 % of NE
"NC[C@H](O)c1ccc(O)c(O)c1 [NE, norepinephrine]",Emax,[13],100±3 % of NE
same,increase in NE potency on α2AR-D4.7R compared with α2AR-D4.4R,[4]; Gαi1 CODA-RET,five-fold
Cc1cccc(C(=O)NCN2CCN(c3ccccc3C#N)CC2)c1 [PD168077],Kd,[1],80 ± 10 nM
"CCCN[C@H]1CCc2nc(N)sc2C1 [Pramipexole, Pramipexole dihydrochloride]",Emax,[14],28±3 % of NE
same,Emax,[4],48±5 % of NE
"COC1(C2=NCCN2)COc2ccccc2O1.Cl (stereo not shown) [RX821002, RX 821002 hydrochloride]",displacement of [3H]YM-09151-2,[2]; any concentration up to 10 μM,did not displace
CCCN(CCC)CCc1cccc2c1CC(=O)N2 [Ropinirole],Emax,[13],ineffective
same,EC50,[14],400 ± 200 nM
"CCCN(CCc1cccs1)[C@H]1CCc2c(O)cccc2C1 [Rotigotine, Rotigotine hydrochloride]",Emax,[13],0 % of NE
same,Emax,[13]; listed as rotigotine,ineffective; also recorded: did not produce any response
same,EC50,[14],7 ± 5 nM
same,Emax,[14],13±2 % of NE
same,Emax,[14]; listed as rotigotine,small Gαi1 protein activation
same,Emax,[4],did not produce any response and 0 % of NE
COC1(C2=NCCN2)COc2ccccc2O1 (stereo not shown) [[^3H]RX821002],Kd,[18],0.62 ± 0.05 nM
same,RT1 (residence time) of [3H]RX821002,[3],7 min
same,RT2 (residence time) of [3H]RX821002,[3],50 min
same,koff1 of [3H]RX821002,[3],0.14 ± 0.03 min⁻¹
same,koff2 of [3H]RX821002,[3],0.020 ± 0.004 min⁻¹
same,RT (residence time) of [3H]RX821002,[19],17 min
same,koff of [3H]RX821002,[19],0.000967 ± 3.3e-05 s⁻¹
human dopamine D4.7 receptor fused to YFP (D4.7R-YFP),BRET50,[20],60
